For the test, the system named is L1210 leukemia ip in BDF1 mice, survival T/C. The test can be described thus: NCI In Vivo Anticancer Drug Screen. Data for tumor model L1210 Leukemia (intraperitoneal) in B6D2F1 (BDF1) mice. As to conditions: endpoint: mean survival time, higher = longer survival. In a few lines: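 Transplantable tumor model; survival measured in treated vs vehicle control mice. Value = treated/control.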

Where [1] appears, read: dose: 100.0 mg/kg/injection, schedule: Q04DX003 (ip), vehicle: Klucel (hydroxypropylcellulose) (HPC).
Setting [2] is: dose: 12.5 mg/kg/injection, schedule: Q04DX003 (ip), vehicle: saline.
Setting [3] is: dose: 25.0 mg/kg/injection, schedule: Q04DX003 (ip), vehicle: saline.
The mark [4] stands for this setting: dose: 12.5 mg/kg/injection, schedule: Q01DX009 (ip), vehicle: saline.
[5] abbreviates: dose: 25.0 mg/kg/injection, schedule: Q01DX009 (ip), vehicle: saline.
Setting [6] is: dose: 50.0 mg/kg/injection, schedule: Q01DX009 (ip), vehicle: saline.
The mark [7] stands for this setting: dose: 25.0 mg/kg/injection, schedule: Q01DX009 (ip), vehicle: saline with Tween-80.
Setting [8] is: dose: 200.0 mg/kg/injection, schedule: Q04DX003 (ip), vehicle: Klucel (hydroxypropylcellulose) (HPC).
The mark [9] stands for this setting: dose: 100.0 mg/kg/injection, schedule: Q04DX002 (ip), vehicle: Klucel (hydroxypropylcellulose) (HPC).
[10] abbreviates: dose: 200.0 mg/kg/injection, schedule: Q04DX002 (ip), vehicle: Klucel (hydroxypropylcellulose) (HPC).
The mark [11] stands for this setting: dose: 400.0 mg/kg/injection, schedule: Q04DX002 (ip), vehicle: Klucel (hydroxypropylcellulose) (HPC).
[12] abbreviates: dose: 200.0 mg/kg/injection, schedule: Q04DX003 (ip), vehicle: saline.
Where [13] appears, read: dose: 50.0 mg/kg/injection, schedule: Q01DX001 (ip), vehicle: carboxymethylcellulose (CMC).
[14] abbreviates: dose: 100.0 mg/kg/injection, schedule: Q01DX009 (ip), vehicle: saline with Tween-80.
Setting [15] is: dose: 100.0 mg/kg/injection, schedule: Q04DX003 (ip), vehicle: saline with Tween-80.
[16] abbreviates: dose: 200.0 mg/kg/injection, schedule: Q01DX009 (ip), vehicle: saline with Tween-80.
[17] abbreviates: dose: 200.0 mg/kg/injection, schedule: Q04DX003 (ip), vehicle: saline with Tween-80.
Setting [18] is: dose: 400.0 mg/kg/injection, schedule: Q01DX009 (ip), vehicle: saline with Tween-80.

“And” between values parts separate entries of the source, which are not always exact repeats. Equal entries are not always repeated. Inconclusive results and toxic doses are left out.

Regarding `[O-][n+]1onc2ncccc21`, the T/C by setting is: (dose: 25.0 mg/kg/injection, schedule: Q04DX003 (ip), vehicle: Klucel (hydroxypropylcellulose) (HPC)) 108 % of control; (dose: 50.0 mg/kg/injection, schedule: Q04DX003 (ip), vehicle: Klucel (hydroxypropylcellulose) (HPC)) 94 % of control; under setting [1], 100 % of control and 102 % of control.
As to `CS/C(N)=N/N`, the T/C runs as follows: under setting [2], 100 % of control; (dose: 25.0 mg/kg/injection, schedule: Q01DX001 (ip), vehicle: saline) 90 % of control; under setting [3], 106 % of control; (dose: 50.0 mg/kg/injection, schedule: Q01DX001 (ip), vehicle: saline) 101 % of control.
Take `Cn1cnc([N+](=O)[O-])c1[Se]c1nc(N)nc2c1ncn2C1OC(CO)C(O)C1O` (stereo not given): the T/C under setting [4] is 161 % of control and 165 % of control; the T/C under setting [5] was 189 % of control and 201 % of control; the T/C under setting [6] was 203 % of control and 255 % of control.
As to `CC(=O)OC(C)(/N=N/C(C)(OC(C)=O)c1ccc(Cl)cc1)c1ccc(Cl)cc1` (stereo not given), the T/C was 113 % of control (dose: 25.0 mg/kg/injection, schedule: Q01DX009 (ip), vehicle: gum acacia); 98 % of control (dose: 25.0 mg/kg/injection, schedule: Q04DX003 (ip), vehicle: gum acacia); 100 % of control (dose: 50.0 mg/kg/injection, schedule: Q01DX009 (ip), vehicle: gum acacia); 98 % of control (dose: 50.0 mg/kg/injection, schedule: Q04DX003 (ip), vehicle: gum acacia); 92 % of control (dose: 100.0 mg/kg/injection, schedule: Q01DX001 (ip), vehicle: gum acacia); 94 % of control (dose: 100.0 mg/kg/injection, schedule: Q01DX009 (ip), vehicle: gum acacia). Also, the T/C (dose: 100.0 mg/kg/injection, schedule: Q04DX003 (ip), vehicle: gum acacia) is 102 % of control.
Regarding `N#Cc1c(F)c(F)c(C(F)(F)F)c(F)c1F`, the T/C reads like this: (dose: 6.0 mg/kg/injection, schedule: Q01DX009 (ip), vehicle: saline with Tween-80) 103 % of control; (dose: 12.0 mg/kg/injection, schedule: Q01DX009 (ip), vehicle: saline with Tween-80) 104 % of control; under setting [7], 93 % of control; (dose: 50.0 mg/kg/injection, schedule: Q01DX009 (ip), vehicle: other) 103 % of control.
`CC(=O)Nc1c([N+](=O)[O-])ccc(Cl)c1Cl`: the T/C was 98 % of control under setting [1] and 97 % of control under setting [8].
For the compound `C=CCc1ccc(O)c(OC)c1`, the T/C runs as follows: (dose: 100.0 mg/kg/injection, schedule: Q04DX002 (ip), vehicle: saline + alcohol) 108 % of control; (dose: 200.0 mg/kg/injection, schedule: Q04DX002 (ip), vehicle: saline + alcohol) 101 % of control; (dose: 400.0 mg/kg/injection, schedule: Q04DX002 (ip), vehicle: saline + alcohol) 97 % of control.
Consider `CCCCCCCCCCCCCc1nc(N)nc(N2CCOCC2)n1`, for which the T/C runs as follows: under setting [9], 92 % of control; under setting [10], 95 % of control; under setting [11], 92 % of control.
On to `O=[N+]([O-])c1ccc(NN=C(CO)CO)c([N+](=O)[O-])c1`, for which the T/C by setting is: (dose: 100.0 mg/kg/injection, schedule: Q01DX005 (ip), vehicle: saline) 98 % of control; (dose: 100.0 mg/kg/injection, schedule: Q04DX003 (ip), vehicle: saline) 101 % of control; (dose: 200.0 mg/kg/injection, schedule: Q01DX005 (ip), vehicle: saline) 93 % of control; under setting [12], 100 % of control; (dose: 400.0 mg/kg/injection, schedule: Q01DX005 (ip), vehicle: saline) 86 % of control; (dose: 400.0 mg/kg/injection, schedule: Q04DX003 (ip), vehicle: saline) 100 % of control.
Take `O=P(c1ccccc1)(N1CC1)N1CC1`: the T/C is 100 % of control (dose: 7.5 mg/kg/injection, schedule: Q04DX003 (ip), vehicle: saline); 102 % of control (dose: 15.0 mg/kg/injection, schedule: Q01DX001 (ip), vehicle: saline); 95 % of control (dose: 15.0 mg/kg/injection, schedule: Q04DX003 (ip), vehicle: saline); 107 % of control (dose: 30.0 mg/kg/injection, schedule: Q01DX001 (ip), vehicle: saline); 98 % of control (dose: 30.0 mg/kg/injection, schedule: Q04DX003 (ip), vehicle: saline).
On to `O=C(O)c1c2ccccc2nc2[nH]c(=O)[nH]c(=O)c12`, for which the T/C under setting [9] was 97 % of control, the T/C under setting [10] is 108 % of control and the T/C under setting [11] is 108 % of control.
Take `CC12CC3CC(C)(C1)CC(N)(C3)C2`: the T/C under setting [13] was 98 % of control.
Regarding `N#CC(NC(N)=O)(c1ccccc1)c1ccccc1`, the T/C is, setting by setting: under setting [13], 91 % of control; (dose: 100.0 mg/kg/injection, schedule: Q01DX001 (ip), vehicle: carboxymethylcellulose (CMC)) 107 % of control; (dose: 200.0 mg/kg/injection, schedule: Q01DX001 (ip), vehicle: carboxymethylcellulose (CMC)) 96 % of control; (dose: 400.0 mg/kg/injection, schedule: Q01DX001 (ip), vehicle: carboxymethylcellulose (CMC)) 91 % of control.
Turning to `CCCCCCCCCCCCSCO`, the T/C reads like this: under setting [7], 118 % of control; (dose: 50.0 mg/kg/injection, schedule: Q01DX009 (ip), vehicle: saline with Tween-80) 105 % of control; under setting [14], 101 % of control and 91 % of control; under setting [15], 105 % of control; under setting [16], 90 % of control; under setting [17], 96 % of control.
Regarding `CCCCC[C@@H](CN(C)C)[C@H](O)/C=C/c1ccc(Cl)cc1`, the T/C is 102 % of control under setting [4]; 88 % of control under setting [2]; 98 % of control under setting [5]; 93 % of control under setting [3]; 93 % of control and 97 % of control under setting [6]; 93 % of control (dose: 50.0 mg/kg/injection, schedule: Q04DX003 (ip), vehicle: saline). The T/C under setting [12] is 102 % of control.
As for `O=C(COC(=O)c1ccccc1)NCCCCc1ccccc1`, the T/C (dose: 100.0 mg/kg/injection, schedule: Q01DX001 (ip), vehicle: saline with Tween-80) is 100 % of control; the T/C under setting [14] was 105 % of control and 91 % of control; the T/C (dose: 100.0 mg/kg/injection, schedule: Q04DX002 (ip), vehicle: saline with Tween-80) was 96 % of control; the T/C under setting [15] is 94 % of control; the T/C (dose: 200.0 mg/kg/injection, schedule: Q01DX001 (ip), vehicle: saline with Tween-80) was 89 % of control; the T/C under setting [16] was 95 % of control and 100 % of control. For the same compound, the T/C was 99 % of control and 91 % of control (dose: 200.0 mg/kg/injection, schedule: Q04DX002 (ip), vehicle: saline with Tween-80); 92 % of control under setting [17]; 94 % of control and 95 % of control under setting [18]; 93 % of control and 86 % of control (dose: 400.0 mg/kg/injection, schedule: Q04DX002 (ip), vehicle: saline with Tween-80).
Consider `N#CC(CC(=O)OCc1ccccc1)NC(=O)OCc1ccccc1` (stereo not given), for which the T/C was 92 % of control under setting [14], 89 % of control under setting [16] and 97 % of control under setting [18].
Regarding `CC(=O)C(=Cc1ccccc1Cl)C(C)=O`, the T/C was 104 % of control (dose: 100.0 mg/kg/injection, schedule: Q01DX001 (ip), vehicle: Klucel (hydroxypropylcellulose) (HPC)); 94 % of control under setting [1]; 98 % of control (dose: 200.0 mg/kg/injection, schedule: Q01DX001 (ip), vehicle: Klucel (hydroxypropylcellulose) (HPC)); 91 % of control under setting [8]; 90 % of control (dose: 400.0 mg/kg/injection, schedule: Q01DX001 (ip), vehicle: Klucel (hydroxypropylcellulose) (HPC)); 100 % of control (dose: 400.0 mg/kg/injection, schedule: Q04DX003 (ip), vehicle: Klucel (hydroxypropylcellulose) (HPC)).

The values are drawn from PubChem BioAssay AID248 (DTP/NCI, 2004).
